Measured values published in publication doi:10.1101/306035v1 (biorxiv, 2018).

Biological target: T1, DcaPTrunc (Acinetobacter baumannii, UniProt A0A0D5YFT0)
T1 sequence (A0A0D5YFT0 89-434): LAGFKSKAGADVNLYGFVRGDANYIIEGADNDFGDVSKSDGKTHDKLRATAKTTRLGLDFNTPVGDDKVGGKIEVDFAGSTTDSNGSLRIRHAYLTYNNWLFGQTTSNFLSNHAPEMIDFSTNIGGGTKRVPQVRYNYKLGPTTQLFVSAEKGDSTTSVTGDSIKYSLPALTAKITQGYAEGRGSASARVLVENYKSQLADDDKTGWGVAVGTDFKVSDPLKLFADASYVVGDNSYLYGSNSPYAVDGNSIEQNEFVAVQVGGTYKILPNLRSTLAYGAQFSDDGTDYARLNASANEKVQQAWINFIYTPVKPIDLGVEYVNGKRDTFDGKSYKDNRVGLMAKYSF
Test: biochemical

## O=C(O)c1ccccc1C(=O)O [o-phthalic acid]
  Kd: ~9 mM
